Experiments:
Type in all cases: cell-based
[1] = system: LPS-mediated inflammatory mediators in RAW264.7 and THP-1 cells; assay: Mean inhibition across all six inflammatory mediators; conditions: for inhibition at 12.5 µM: 12.5 μM test compound
Protocol: (§1) The effect of the THIAA derivatives on LPS-mediated prostaglandin E2 (PGE2) and nitric oxide (NO) production was evaluated in a RAW264.7 murine macrophage model. The RAW 264.7 cell line was purchased from ATCC (Manassas, Va.) and maintained according to their instructions. Cells were grown and subcultured in 96-well plates at a density of 8×10^4 cells per well, and reached 80-90% confluence the next day. THIAA derivatives were added to the cells in serum-free medium at a final concentration of 0.1% DMSO. Following one hour of incubation with the THIAA derivatives, LPS (1 μg/ml) or DMEM medium alone was added to the cells and incubation was continued for 6 hours. Stimulation of RAW 264.7 cells with LPS (1 μg/ml) for 6 hours activated the production of PGE2 and NO. Supernatant media was collected for measurement of PGE2 levels. For NO, incubations were continued overnight. Supernatant media was collected for measurement of NO levels after 16 hours of stimulation. PGE2 levels were measured using assay kits from Assay Designs, (Ann Arbor, Mich.) and NO levels were measured using assay kits from Cayman Chemicals (Ann Harbor, Mich.).
(§2) The effect of the THIAA derivatives on LPS-mediated MMP-9, IL-1β, ([…], MCP-1, RANTES, and MIP-1α was evaluated in THP-1 cells. Stimulation of THP-1 cells with LPS (1 μg/ml) activated the production of MMP-9, IL-1β, MCP-1, RANTES, and MIP-1α.
(§3) Results are summarized in Table 2, with data represented as % inhibition of inflammatory mediator production.
Mean inhibition across all six inflammatory mediators was calculated for each of the THIAA derivatives.

PPARγ = target: T1, PPARγ (Homo sapiens, UniProt P37231); assay: PPARγ reporter assay (INDIGO Biosciences); conditions: 20 h, read-out: PPARγ % rosiglitazone (500 nM), 12.5 μM test compound; luciferase reporter cells, 20 hours; activity compared to rosiglitazone
T1 sequence (P37231 1-505): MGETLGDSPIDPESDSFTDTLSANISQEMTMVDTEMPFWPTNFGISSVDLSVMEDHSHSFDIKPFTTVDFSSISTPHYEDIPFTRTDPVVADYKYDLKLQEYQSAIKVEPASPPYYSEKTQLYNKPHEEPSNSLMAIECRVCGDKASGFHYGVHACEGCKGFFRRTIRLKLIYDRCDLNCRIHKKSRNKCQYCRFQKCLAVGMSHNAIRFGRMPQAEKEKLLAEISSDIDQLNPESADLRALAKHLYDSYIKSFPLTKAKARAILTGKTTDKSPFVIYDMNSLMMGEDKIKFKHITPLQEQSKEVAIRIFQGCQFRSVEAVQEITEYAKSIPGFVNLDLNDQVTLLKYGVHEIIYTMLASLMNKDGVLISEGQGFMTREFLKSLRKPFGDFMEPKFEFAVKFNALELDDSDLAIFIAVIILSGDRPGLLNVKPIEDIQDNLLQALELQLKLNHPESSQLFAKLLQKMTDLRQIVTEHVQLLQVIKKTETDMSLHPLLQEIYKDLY
Protocol: (§4) The functional effect of THIAA derivatives on PPARα and PPARγ activity was evaluated using a PPAR reporter assay (INDIGO Biosciences, Pa.). This assay utilizes non-human mammalian cells engineered to provide constitutive high level expression of PPARα, or PPARγ and containing a luciferase report gene specific to the appropriate PPAR. Following activation by agonist binding, PPAR induces expression of the luciferase reporter gene. Luciferase activity therefore provides a surrogate for measuring PPAR activity in agonist-treated cells.
(§5) 0.1% DMSO was used as a solvent control for each assay. Plates were incubated for 20 hours in a humidified incubator at 37° C. and 5% CO2. After incubation, the cell medium was discarded and the cells were treated with 100 μL of luciferase detection reagent for 15 minutes. Plates were analyzed using a luminometer (Victor2, Perkin Elmer). Average relative light unit (RLU) and standard deviation were measured.

[2] = system: LPS-mediated MCP-1 production in THP-1 cells; assay: LPS-mediated MCP-1 production in THP-1 cells; conditions: Homo sapiens; for inhibition at 12.5 µM: 12.5 μM test compound, THP-1 cells, LPS 1 μg/ml, NI = no inhibition
Protocol: (§6) THIAA derivatives synthesized in Examples 1-19 were dissolved in dimethyl sufoxide (DMSO) and stored at −20° C. LPS was purchased from Sigma Chemicals (St. Louis, Miss.).
as §2, §3

[3] = system: LPS-mediated MIP-1α production in THP-1 cells; assay: LPS-mediated MIP-1α production in THP-1 cells; conditions: Homo sapiens; for inhibition at 12.5 µM: 12.5 μM test compound, THP-1 cells, LPS 1 μg/ml, NI = no inhibition
Protocol: as §6, §2, §3

PPARα = target: T2, PPARα (Homo sapiens, UniProt Q07869); assay: PPARα reporter assay (INDIGO Biosciences); conditions: luciferase reporter cells, 20 hours; for PPARα % GW590735 (20.6 nM) / Emax at 12.5 µM: 12.5 μM test compound, activity compared to GW590735; for Emax at 12.5 µM: read-out: PPARα % GW590735 (20.6 nM)
T2 sequence (Q07869 1-468): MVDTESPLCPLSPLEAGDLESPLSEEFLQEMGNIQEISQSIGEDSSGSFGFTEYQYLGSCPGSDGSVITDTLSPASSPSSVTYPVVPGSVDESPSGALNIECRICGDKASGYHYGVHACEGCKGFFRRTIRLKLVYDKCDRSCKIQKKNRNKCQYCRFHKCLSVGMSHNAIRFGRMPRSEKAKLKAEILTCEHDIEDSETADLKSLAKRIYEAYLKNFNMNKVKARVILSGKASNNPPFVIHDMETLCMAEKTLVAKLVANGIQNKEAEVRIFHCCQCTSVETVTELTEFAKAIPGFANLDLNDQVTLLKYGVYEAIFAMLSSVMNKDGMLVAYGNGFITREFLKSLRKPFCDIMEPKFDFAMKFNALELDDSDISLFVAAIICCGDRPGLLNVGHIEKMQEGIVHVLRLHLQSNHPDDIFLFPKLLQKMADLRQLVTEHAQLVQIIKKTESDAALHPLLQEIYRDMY
Protocol: as §4, §5

[4] = system: LPS-mediated nitric oxide (NO) production in RAW264.7 cells; assay: LPS-mediated NO production in RAW264.7 murine macrophage model; conditions: Mus musculus, RAW264.7, 16 h, LPS 1 μg/ml; for inhibition at 12.5 µM: 12.5 μM test compound, NI = no inhibition
Protocol: as §6, §1, §3

[5] = system: LPS-mediated RANTES production in THP-1 cells; assay: LPS-mediated RANTES production in THP-1 cells; conditions: Homo sapiens; for inhibition at 12.5 µM: 12.5 μM test compound, THP-1 cells, LPS 1 μg/ml, NI = no inhibition
Protocol: as §6, §2, §3

[6] = system: LPS-mediated IL-6 production in THP-1 cells; assay: LPS-mediated IL-6 production in THP-1 cells; conditions: Homo sapiens; for inhibition at 12.5 µM: 12.5 μM test compound, THP-1 cells, LPS 1 μg/ml, NI = no inhibition
Protocol: as §6, §2, §3

[7] = system: LPS-mediated prostaglandin E2 (PGE2) production in RAW264.7 cells; assay: LPS-mediated PGE2 production in RAW264.7 murine macrophage model; conditions: Mus musculus, RAW264.7, 6 h, LPS 1 μg/ml, NI = no inhibition; for inhibition at 12.5 µM: 12.5 μM test compound
Protocol: as §6, §1, §3

Row | SMILES | inhibition at 12.5 µM [1] [%] | Emax at 12.5 µM (PPARγ) [%] | inhibition at 12.5 µM [2] [%] | inhibition at 12.5 µM [3] [%] | PPARα % GW590735 (20.6 nM) (PPARα) | Emax at 12.5 µM (PPARα) [%] | inhibition at 12.5 µM [4] [%] | inhibition at 12.5 µM [5] [%] | inhibition at 12.5 µM [6] [%] | inhibition at 12.5 µM [7] [%] | inhibition at 10 µM ([7]; 10 μM (rosiglitazone)) [%] | inhibition at 10 µM ([1]; 10 μM (rosiglitazone)) [%] | inhibition at 10 µM ([2]; THP-1) [%] | inhibition at 10 µM ([3]; THP-1) [%] | inhibition at 10 µM ([4]; 10 μM (rosiglitazone)) [%] | inhibition at 10 µM ([5]; THP-1) [%] | inhibition at 10 µM ([6]; THP-1) [%] | PPARα activity (positive control) (PPARα; GW590735 21-5000 nM)
1 | CC(C)CCC(=O)[C@@]1(OC(=O)CC(C)(C)C)C(O)=C(C(=O)CC(C)C)C(=O)[C@@H]1CCC(C)C [KDT0034, (1S,5R)-2-hydroxy-3-(3-methylbutanoyl)-5-(3-methylbutyl)-1-(4-methylpentanoyl)-4-oxocyclopent-2-en-1-yl 3,3-dimethylbutanoate] | ~90 | 5 | 100 | 94 | dual PPARα and PPARγ agonists | 9 | > 50 | 98 | 84 | – | – | – | – | – | – | – | – | –
2 | CN/C(CC(C)C)=C1\C(=O)[C@H](CCC(C)C)[C@@](O)(C(=O)CCC(C)C)C1=O [KDT0020, (4R,5R)-4-hydroxy-5-(3-methylbutyl)-2-[3-methyl-1-(methylamino)butylidene]-4-(4-methylpentanoyl)cyclopentane-1,3-dione] | 46 | < 5 | 82 | < 20 | – | < 5 | < 20 | 35 | 70 | 75 | – | – | – | – | – | – | – | –
3 | CO/N=C(/CC(C)C)C1=C(O)[C@](O)(/C(CCC(C)C)=N/OC)[C@@H](CCC(C)C)C1=O [KDT0001/2, (4R,5R)-3,4-dihydroxy-2-(N-methoxy-3-methylbutanimidoyl)-4-(N-methoxy-4-methylpentanimidoyl)-5-(3-methylbutyl)cyclopent-2-en-1-one] | 39 | < 5 | 74 | < 20 | – | < 5 | < 0 | 45 | 60 | 55 | – | – | – | – | – | – | – | –
4 | CC(C)CCC(=O)[C@@]1(O)C(=O)/C(=C(\CC(C)C)NCc2ccccc2)C(=O)[C@@H]1CCC(C)C [KDT0024, (4R,5R)-2-[1-(benzylamino)-3-methylbutylidene]-4-hydroxy-5-(3-methylbutyl)-4-(4-methylpentanoyl)cyclopentane-1,3-dione] | 44 | < 5 | 80 | < 0 | – | < 5 | 27 | 20 | 53 | 81 | – | – | – | – | – | – | – | –
5 | CC(C)CCC(=O)[C@@]1(OC(=O)C(C)(C)C)C(O)=C(C(=O)CC(C)C)C(=O)[C@@H]1CCC(C)C [KDT0033, (1S,5R)-2-hydroxy-3-(3-methylbutanoyl)-5-(3-methylbutyl)-1-(4-methylpentanoyl)-4-oxocyclopent-2-en-1-yl 2,2-dimethylpropanoate] | ~90 | ≥ 5 | 100 | 95 | no effect | < 5 | > 50 | 97 | 87 | – | – | – | – | – | – | – | – | –
6 | CC(C)CCC(=O)[C@@]1(OC(=O)OCC(C)C)C(O)=C(C(=O)C(C)C)C(=O)[C@@H]1CCC(C)C [KDT0037, (1S,5R)-2-hydroxy-5-(3-methylbutyl)-1-(4-methylpentanoyl)-3-(2-methylpropanoyl)-4-oxocyclopent-2-en-1-yl 2-methylpropyl carbonate] | 72 | – | 98 | 22 | no effect | < 5 | – | 83 | 61 | – | – | – | – | – | – | – | – | –
7 | CN(CCOc1ccc(CC2SC(=O)NC2=O)cc1)c1ccccn1 (stereo not drawn) [Rosiglitazone, reference compound] | – | – | – | – | – | – | – | – | – | – | < 0 | < 20 | < 0 | < 0 | 6 | 24 | < 0 | –
8 | Cc1nc(-c2ccc(C(F)(F)F)cc2)sc1C(=O)NCc1ccc(OC(C)(C)C(=O)O)cc1 [GW590735, reference compound] | – | – | – | – | – | – | – | – | – | – | – | – | – | – | – | – | – | increased the activity

— US10343977B2, “Tetrahydro-isohumulone derivatives, methods of making and using” (KINDEX PHARMACEUTICALS, INC., priority 2012, dated 2019)
